Columns and labels:
Assay type in all cases: cell-based
MCF7 cells = assay: Cell viability assay ([…]-GLO, 6-day treatment); conditions: Homo sapiens, MCF7, 144 h; MCF-7 cells, 6 days, CTG; read-out: Inhibition of Cancerous Cells IC50 MCF-7
Method in brief: (§1)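 MCF7 (MEM) and T47D (RPMI with insulin), both with 10% FBS, at 1,000 cells/well, treated with a 10-point compound dose series for 6 days, with medium and compound refreshed once. Viability read by CellTiter-Glo luminescence.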

T47D cells = assay: Cell viability assay ([…]-GLO, 6-day treatment); conditions: Homo sapiens, 144 h, 6 days, CTG, read-out: Inhibition of Cancerous Cells IC50 T47D
Method in brief: as §1

ERα = target: T1, ERα (Homo sapiens, UniProt P03372); assay: Protein degradation assay: ERα in MCF-7 cells via western blot; conditions: 6 h; for ERα Protein Degradation 1 nM: 1 nM compound; for ERα Protein Degradation 10 nM: 10 nM compound; for ERα Protein Degradation 100 nM: 100 nM compound
T1 construct: degrading an ERα in MCF-7 cells via a western blot; endogenous in cells; host or cells: MCF-7
T1 sequence (P03372 1-595): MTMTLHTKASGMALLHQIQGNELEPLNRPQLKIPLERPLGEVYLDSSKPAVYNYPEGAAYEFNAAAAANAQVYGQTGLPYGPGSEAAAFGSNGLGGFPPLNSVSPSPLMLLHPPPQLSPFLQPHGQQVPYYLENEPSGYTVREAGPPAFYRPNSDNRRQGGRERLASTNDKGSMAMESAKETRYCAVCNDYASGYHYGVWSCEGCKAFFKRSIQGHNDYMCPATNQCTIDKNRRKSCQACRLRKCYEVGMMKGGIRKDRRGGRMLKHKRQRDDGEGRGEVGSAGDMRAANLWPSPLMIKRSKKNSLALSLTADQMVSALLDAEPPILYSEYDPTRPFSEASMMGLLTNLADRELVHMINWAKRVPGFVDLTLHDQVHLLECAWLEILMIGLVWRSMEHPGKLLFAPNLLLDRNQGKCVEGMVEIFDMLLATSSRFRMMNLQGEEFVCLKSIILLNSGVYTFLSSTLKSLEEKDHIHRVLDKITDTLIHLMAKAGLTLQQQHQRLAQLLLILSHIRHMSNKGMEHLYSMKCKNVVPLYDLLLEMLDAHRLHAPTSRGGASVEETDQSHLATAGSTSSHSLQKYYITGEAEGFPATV
Method in brief: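 MCF-7 cells in MEM/10% FBS with insulin, seeded 300,000/well, treated 6 h at set concentrations (e.g., 1 nM–1 μM). Whole-cell lysates immunoblotted for ERα with GAPDH loading control, chemiluminescent detection; percentage degradation reported in binned categories (≥50%, 25–50%, 10–25%, <10%).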

For O=C1CCC(N2Cc3c(cc(F)cc3C3CCN(CCCCCCOc4ccc([C@@H]5c6ccc(O)cc6CC[C@@H]5c5ccccc5)cc4)CC3)C2=O)C(=O)N1 (stereo partly drawn) [Compound A2, 3-(6-Fluoro-4-(1-(6-(4-((1R,2S)-6-hydroxy-2-phenyl-1,2,3,4-tetrahydro-naphthalen-1-yl)phenoxy)hexyl)piperidin-4-yl)-1-oxoisoindolin-2-yl)piperidine-2,6-dione], the IC50 (MCF7 cells) was 0.72 nM, the IC50 (T47D cells) was 0.61 nM and the “ERα Protein Degradation 1 nM” value (ERα) was “D (a percentage degradation value of less than 10%)”. For the same molecule, the “ERα Protein Degradation 10 nM” value (ERα) was “D (a percentage degradation value of less than 10%)” and the “ERα Protein Degradation 100 nM” value (ERα) was “D (a percentage degradation value of less than 10%)”.

With O=C1CCC(N2Cc3c(cc(F)cc3C3CCN(CC4CCN(c5ccc([C@@H]6c7ccc(O)cc7CC[C@@H]6c6ccccc6)cc5)CC4)CC3)C2=O)C(=O)N1 (stereo partly drawn) [Compound A3, 3-(6-Fluoro-4-(1-((1-(4-((1R,2S)-6-hydroxy-2-phenyl-1,2,3,4-tetrahydro-naphthalen-1-yl)phenyl)piperidin-4-yl)methyl)piperidin-4-yl)-1-oxoisoindolin-2-yl)piperidine-2,6-dione] the IC50 (MCF7 cells) was 0.2 nM, the IC50 (T47D cells) was 0.44 nM and the “ERα Protein Degradation 1 nM” value (ERα) was “D (a percentage degradation value of less than 10%)”. The “ERα Protein Degradation 10 nM” value (ERα) was “D (a percentage degradation value of less than 10%)” and the “ERα Protein Degradation 100 nM” value (ERα) was “D (a percentage degradation value of less than 10%)”.

For O=C1CCC(N2Cc3cc(C4CCN(CCCCOc5ccc([C@@H]6c7ccc(O)cc7CC[C@@H]6c6ccccc6)cc5)CC4)c(F)cc3C2=O)C(=O)N1 (stereo partly drawn) [Compound A4, 3-(6-Fluoro-5-(1-(4-(4-((1R,2S)-6-hydroxy-2-phenyl-1,2,3,4-tetrahydro-naphthalen-1-yl)phenoxy)butyl)piperidin-4-yl)-1-oxoisoindolin-2-yl)piperidine-2,6-dione], the IC50 (MCF7 cells) was 0.06 nM, the IC50 (T47D cells) was 0.08 nM and the “ERα Protein Degradation 1 nM” value (ERα) was “D (a percentage degradation value of less than 10%)”. For the same molecule, the “ERα Protein Degradation 10 nM” value (ERα) was “D (a percentage degradation value of less than 10%)” and the “ERα Protein Degradation 100 nM” value (ERα) was “D (a percentage degradation value of less than 10%)”.

O=C1CCC(N2Cc3cc(C4CCN(CCCCCCOc5ccc([C@@H]6c7ccc(O)cc7CC[C@@H]6c6ccccc6)cc5)CC4)c(F)cc3C2=O)C(=O)N1 (stereo partly drawn) [Compound A5, 3-(6-Fluoro-5-(1-(6-(4-((1R,2S)-6-hydroxy-2-phenyl-1,2,3,4-tetrahydro-naphthalen-1-yl)phenoxy)hexyl)piperidin-4-yl)-1-oxoisoindolin-2-yl)piperidine-2,6-dione] was tested, and the IC50 (MCF7 cells) was 0.37 nM, the IC50 (T47D cells) was 0.22 nM and the “ERα Protein Degradation 1 nM” value (ERα) was “A (a percentage degradation value of no less than 50%)”. The “ERα Protein Degradation 10 nM” value (ERα) was “A (a percentage degradation value of no less than 50%)” and the “ERα Protein Degradation 100 nM” value (ERα) was “A (a percentage degradation value of no less than 50%)”.

O=C1CCC(N2Cc3cc(C4CCN(CC5CCN(c6ccc([C@@H]7c8ccc(O)cc8CC[C@@H]7c7ccccc7)cc6)CC5)CC4)c(F)cc3C2=O)C(=O)N1 (stereo partly drawn) [Compound A6, 3-(6-fluoro-5-(1-((1-(4-((1R,2S)-6-hydroxy-2-phenyl-1,2,3,4-tetrahydro-naphthalen-1-yl)phenyl)piperidin-4-yl)methyl)piperidin-4-yl)-1-oxoisoindolin-2-yl)piperidine-2,6-dione] was tested, and the IC50 (MCF7 cells) was 4 nM, the IC50 (T47D cells) was 0.47 nM and the “ERα Protein Degradation 1 nM” value (ERα) was “B (a percentage degradation value of less than 50% and no less than 25%)”. The “ERα Protein Degradation 10 nM” value (ERα) was “B (a percentage degradation value of less than 50% and no less than 25%)” and the “ERα Protein Degradation 100 nM” value (ERα) was “D (a percentage degradation value of less than 10%)”.

— patent publication US20240368121A1, “ESTROGEN RECEPTOR DEGRADERS, PHARMACEUTICAL COMPOSITIONS THEREOF, AND THEIR THERAPEUTIC APPLICATIONS” (BioTheryX, Inc., priority 2021, published 2024)
